Laboratory results taken from PMC7893915, “Assessing cross-resistance within the pyrethroids in terms of their interactions with key cytochrome P450 enzymes and resistance in vector populations” (Parasites & Vectors, 2021).
pIC50: −log10 of the molar value. Entries after “also recorded” stand apart in the source; their conditions may differ. Where two headings read alike, the source gives them in different places.

Legend:
[1] = system: CYP6P2; details: read-out: IC50 CYP6P2, inhibition of diethoxyfluorescein metabolism, cited from earlier work
[2] = system: CYP6P9a; details: read-out: IC50 CYP6P9a, inhibition of diethoxyfluorescein metabolism, cited from earlier work
[3] = system: Anopheles sinensis; parameters: method as in PMID 24159535; details: resistance ratios using LC50 values from a susceptible strain; most susceptible to bifenthrin, cyfluthrin and etofenprox, in that order; ref [55]; cited from earlier work
[4] = system: CYP6M2, CYP6P3 and CYP6P9a; assay: Pyrethroid metabolism (insecticide depletion), across CYP6M2, CYP6P3 and CYP6P9a; format: in vitro ADME, Anopheles gambiae and An. funestus; details: for vulnerability for metabolic attack by the three enzymes, rank in words: CYP6P3, CYP6M2 and CYP6P9a, among the six pyrethroids
Description: In this study, the half maximal inhibitory concentration (IC50), which provides a value for inhibition of each P450 by each pyrethroid (also referred to as ‘binding affinity’), and the percentage depletion, which gives a value for metabolism of each pyrethroid by each P450 (also referred to as vulnerability to metabolic attack), were both included as parameters to establish a P450s structural activity relationship model. This model was used to understand both the chemistry of the pyrethroids and the interaction with mosquito P450s that function as monooxygenases in metabolic resistance, to predict cross-resistance liabilities in vivo. […] A low percentage depletion indicates low metabolism of the pyrethroid, which means that it may be less vulnerable to resistance mediated by P450s.
The values for percentage depletion (metabolism) of each pyrethroid by three of the enzymes CYP6M2, CYP6P3 and CYP6P9a, which were expressed in a single plasmid construct, were also extracted from the same sources and used for the comparative analysis.

[5] = system: Gambiae Complex; details: WHO Bioassay 1998, cited from earlier work
[6] = system: Anopheles arabiensis; details: Sudan, WHO Bioassay 1998, cited from earlier work
[7] = system: Anopheles funestus; details: F1, house resting indoors, WHO Bioassay 1998, cited from earlier work
[8] = system: Ae. aegypti; assay: WHO adult susceptibility test on field samples, Ae. aegypti; format: in vivo, Aedes aegypti; details: standard diagnostic doses
Description: The analyses conducted using data from An. gambiae (s.l.) samples were repeated using data from the An. funestus subgroup, An. arabiensis, An. coluzzii, An. funestus and An. gambiae samples (Additional file 2). The same approach was also used for susceptibility test data from Aedes albopictus and Ae. aegypti to investigate whether the same relationships could be detected in these vectors of arboviruses, as detailed in Additional file 3.
Additional File 3: Cross-resistance to pyrethroids within wild populations of Aedes vectors […]
If structural diversity within the pyrethroids is also associated with divergence in resistance within the Aedes vectors of arboviruses, this would lend weight to the findings for malaria vectors presented in the main manusc ript. Like the Anopheles vectors, target-site mutations and metabolic resistance are thought to be the main resistance mechanisms in Aedes mosquitoes. At least ten mutations in the Aedes aegypti Vgsc gene have been identified and the most widespread mutation, […]
mutations and is also associated with DDT resistance. More recently, the V1016G mutation has been found in Ae. albopictus in Viet Nam and Italy, and both this allele and the F1534C and F1534S […]
expression of cytochrome P450s has also been implicated in pyrethroid resistance within Aedes mosquitoes and there is evidence that metabolic resistance can confer cross -resistance to multiple pyrethroids. For example, over-expression of CYP9J28 is associated with metabolic resistance to […]
target site- and P450-mediated resistance in Ae. aegypti strains found variation in resistance to seven pyrethroids and hypothesised that some patterns of resistance could be linked to structural differences, but also noted that general conclusions are challenging to make without a greater number of compounds with a single modification to compare. No studies of structure activity relationships using a wide range of pyrethroids and P450s from Aedes mosquitoes have been conducted to-date, but data on resistance in wild populations are available. A wider range of pyrethroids are more typically tested by studies of resistance in Aedes vectors, compared to Anopheles vectors, although these studies are also more varied in terms of diagnostic dose, bioass ay method and life cycle stage, making comparisons across studies difficult. Here we selected studies that used a common experimental design and investigated correlations in resistance to pairs of pyrethroids mirroring part of the work on Anopheles vectors presented in the main manuscript.
We identified all instances within a public insecticide resistance database where an Aedes field sample had been subdivided among tests for different pyrethroids. We then identified the most commonly used bioassay type across the new pyrethroid dataset, which was the WHO adult susceptibility test as described for malaria vectors, and the most commonly used diagnostic dose for […]
each compound (Table S2). […]
removed. Paired results were then extracted, and the mean values for the Pearson’s correlation coefficient were calculated for each pyrethroid pair using 1,000 bootstaps in SPSS Statistics v25.
Table S5. Diagnostic doses and data volumes for each pyrethroid.
Pyrethroid Most common dose Number of data points
The number of data points available for each pyrethroid from an Ae. aegypti sample that was used to test at least one other pyrethroid, using standard WHO susceptibility tests and standard diagnostic doses, is given.

[9] = footnote b, ref Yunta et al. 2019[10]
[10] = mean ± SD across CYP6M2, CYP6P3, CYP6P9a
[11] = ID 100127, F1, house resting indoors, 4/2010, VK6, Burkina Faso, ref Kwiatkowska RM et al. Gene. 2013;519(1):98-106
[12] = ID 100156, F0, larval collection, 5/2009-4/2010, Chano, Ethiopia, ref Massebo F et al. Parasites Vectors. 2013;6
[13] = ID 200047, F1, larval collection, 9/2007-11/2007, Elmaygoma, ref Seidahmed OME et al. Eastern Mediterranean Health Journal. 2012;18(7):769-76
[14] = ID 200044, 4/2009-4/2010, Kalungama, Malawi, ref Wondji CS et al. Proc Natl Acad Sci U S A. 2012;109(47):19063-70
[15] = ID 200045, 4/2009-4/2010, Chinkole, Malawi, ref Wondji CS et al. Proc Natl Acad Sci U S A. 2012;109(47):19063-70
[16] = ID 200048, 3/2000-7/2002, Catembe, Mozambique, ref Casimiro S et al. J Med Entomol. 2006;43(2):267-75
[17] = Pair 3 λ-cyhalothrin vs etofenprox, N 21 paired Ae. aegypti samples
[18] = Pair 8 permethrin vs λ-cyhalothrin, N 56 paired Ae. aegypti samples
[19] = Pair 9 deltamethrin vs λ-cyhalothrin, N 67 paired Ae. aegypti samples
[20] = footnote a, ref Yunta et al. 2016[8]
[21] = ID 100045, F0, larval collection, 7/2010-12/2010, Ahero Division, Kenya, ref Ochomo E et al. Med Vet Entomol. 2013;27(2):156-64
[22] = ID 100117, F1, house resting indoors, 4/2010, VK2, Burkina Faso, ref Kwiatkowska RM et al. Gene. 2013;519(1):98-106
[23] = ID 100160, F0, larval collection, 10/2008-5/2009, Nkolondom, Cameroon, ref Nwane P et al. Parasites Vectors. 2013;6
[24] = ID 200117, 4/2009-11/2009, Tororo, Uganda, ref Morgan JC et al. PLoS One. 2010;5(7)
[25] = Pair 1 deltamethrin vs etofenprox, N 29 paired Ae. aegypti samples
[26] = Pair 6 deltamethrin vs permethrin, N 136 paired Ae. aegypti samples
[27] = Pair 4 permethrin vs etofenprox, N 31 paired Ae. aegypti samples

Compound	pIC50 [1, 9]	pIC50 [2, 9]	susceptibility of larvae, rank in words [3]	vulnerability for metabolic attack by the three enzymes, rank in words [4]	% Insecticide depletion Mean across P450s [4, 10] [%]	mortality [5, 11]	mortality [5, 12]	mortality [6, 13]	mortality [7, 14]	mortality [7, 15]	mortality [7, 16]	Mean percent mortality (SE) [8, 17]	Mean percent mortality (SE) [8, 18]	Mean percent mortality (SE) [8, 19]	pIC50 [1, 20]	mortality [5, 21]	mortality [5, 22]	mortality [5, 23]	pIC50 [2, 20]	mortality [7, 24]	other results
Cc1c(COC(=O)[C@@H]2[C@H](/C=C(\Cl)C(F)(F)F)C2(C)C)cccc1-c1ccccc1 (racemic) [Bifenthrin, bifenthrin]	4.97	5.07	most susceptible	lowest vulnerability	56.3																
CC1(C)[C@H](C(=O)O[C@H](C#N)c2cccc(Oc3ccccc3)c2)[C@@H]1/C=C(\Cl)C(F)(F)F (racemic) [λ-Cyhalothrin, λ-cyhalothrin]	5.32	5.43			66.6 ± 17.0	7.3	56	98.9	34.3	60	59.3	72.40 (4.52) percent	84.52 (3.40) percent	74.16 (3.55) percent							Mean percent mortality (SE) ([8]; Pair 7 λ-cyhalothrin vs cyfluthrin, N 25 paired Ae. aegypti samples): 66.90 (5.01) percent
CC1(C)[C@H](C(=O)O[C@H](C#N)c2cccc(Oc3ccccc3)c2)[C@@H]1C=C(Br)Br [Deltamethrin, deltamethrin]					83.5 ± 24.2	18.8	47	99.5	51.2	68.5	55.2			85.64 (2.66) percent	5.30	92.31	37.2	95	5.59	39	mortality ([6]; F0, larval collection, 10/2009-11/2009, El Managil, ref Abdalla H et al. Parasites Vectors. 2014;7:213): 92; mortality ([6]; F0, larval collection, 10/2009-11/2009, Rufaa, ref Abdalla H et al. Parasites Vectors. 2014;7:213): 94; mortality ([6]; F0, larval collection, 10/2009-11/2009, Wad El Hadad, ref Abdalla H et al. Parasites Vectors. 2014;7:213): 94; mortality ([6]; F0, larval collection, 10/2010-11/2010, Wad El Hadad, ref Abdalla H et al. Parasites Vectors. 2014;7:213): 71; mortality ([6]; F0, larval collection, 10/2010-11/2010, Wad Medani, ref Abdalla H et al. Parasites Vectors. 2014;7:213): 80; Mean percent mortality (SE) [8, 25]: 90.68 (2.80) percent; Mean percent mortality (SE) [8, 26]: 88.10 (1.66) percent; Mean percent mortality (SE) ([8]; Pair 10 deltamethrin vs cyfluthrin, N 72 paired Ae. aegypti samples): 88.43 (1.94) percent
CCOc1ccc(C(C)(C)COCc2cccc(Oc3ccccc3)c2)cc1 [Etofenprox, etofenprox]	5.33	5.09	most susceptible	most vulnerable	89.0 ± 17.5							16.81 (4.43) percent									Mean percent mortality (SE) [8, 25]: 21.59 (4.75) percent; Mean percent mortality (SE) ([8]; Pair 2 cyfluthrin vs etofenprox, N 22 paired Ae. aegypti samples): 21.14 (5.32) percent; Mean percent mortality (SE) [8, 27]: 21.09 (4.89) percent; metabolism in words ([4]; by CYP6P3, CYP6M2 and CYP6P9a): strongly metabolised; also recorded: most depleted
CC1(C)C(C=C(Cl)Cl)C1C(=O)OCc1cccc(Oc2ccccc2)c1 (stereo not shown) [Permethrin, permethrin]			least susceptible	most vulnerable		3		96	67.4		100		70.10 (3.99) percent		5.07	91.97	4.1	95	5.24	69	Mean percent mortality (SE) [8, 27]: 63.39 (5.36) percent; Mean percent mortality (SE) ([8]; Pair 5 permethrin vs cyfluthrin, N 79 paired Ae. aegypti samples): 59.01 (3.18) percent; Mean percent mortality (SE) [8, 26]: 61.44 (2.40) percent; % Insecticide depletion Mean across P450s ([4]; Anopheles gambiae and An. funestus): 82.1 ± 21.3%
